# Source: patent US12091409B2, “Ether linked triazoles as NRF2 activators” (ASTEX THERAPEUTICS LIMITED, priority 2016, dated 2024)
# System: NQO1 specific enzyme activity in BEAS-2B cells (marker for NRF2 activation)
# Assay: BEAS-2B NQO1 MTT Assay
# Format: cell-based
# Settings: Homo sapiens, BEAS-2B, 48 h, NQO1 specific activity induction, 48 hours with compound
# Summary of the method: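 Following 48 h compound treatment at 37° C., 5% CO2, cells were lysed and MTT cocktail added. Product formation was followed kinetically at 570 nm for 30 min. Rate (Delta OD/min) against log concentration was fitted with 3 parameters to give pEC50 for induction of NQO1 specific activity.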
row,SMILES,EC50
1,"Cc1ccc(C(OCc2cn(CC3CCN(C(=O)OC(C)(C)C)CC3)nn2)C(C)(C)C(=O)O)cc1CN1C[C@@H](C)Oc2ccccc2S1(=O)=O (stereo partly drawn) [Example 20, 3-((1-((1-(Tert-butoxycarbonyl)piperidin-4-yl)methyl)-1H-1,2,3-triazol-4-yl)methoxy)-2,2-dimethyl-3-(4-methyl-3-(((R)-4-methyl-1,1-dioxido-3,4-dihydro-2H-benzo[b][1,4,5]oxathiazepin-2-yl)methyl)phenyl)propanoic acid]",1 to 10 nM
2,"CCn1cc(CO[C@H](c2ccc(C)c(CN3C[C@@H](C)Cc4ccncc4S3(=O)=O)c2)C(C)(C)C(=O)O)nn1 [Example 61, (3R)-((1-ethyl-1H-1,2,3-triazol-4-yl)methoxy)-2,2-dimethyl-3-(4-methyl-3-(((S)-4-methyl-1,1-dioxido-4,5-dihydropyrido[4,3-f][1,2]thiazepin-2(3H)-yl)methyl)phenyl)propanoic acid]",< 1 nM
3,"Cc1ccc(C(OCc2cn(Cc3cccc(Cn4cc(CCO)nn4)c3)nn2)C(C)(C)C(=O)O)cc1CN1C[C@@H](C)Oc2ccccc2S1(=O)=O (stereo partly drawn) [Example 40, 3-((1-(3-((4-(2-Hydroxyethyl)-1H-1,2,3-triazol-1-yl)methyl)benzyl)-1H-1,2,3-triazol-4-yl)methoxy)-2,2-dimethyl-3-(4-methyl-3-(((R)-4-methyl-1,1-dioxido-3,4-dihydro-2H-benzo[b][1,4,5]oxathiazepin-2-yl)methyl)phenyl)propanoic acid]",100 to 1000 nM
4,"CC[C@@H]1CN(Cc2cc([C@@H](OCc3cn(C)nn3)C(C)(C)C(=O)O)ccc2C)S(=O)(=O)c2ncccc2O1 [Example 121, (R)-3-(3-(((R)-4-Ethyl-1,1-dioxido-3,4-dihydro-2H-pyrido[3,2-b][1,4,5]oxathiazepin-2-yl)methyl)-4-methylphenyl)-2,2-dimethyl-3-((1-methyl-1H-1,2,3-triazol-4-yl)methoxy)propanoic acid]",1 to 10 nM
5,"CC[C@@H]1CN(Cc2cc([C@H](OCc3cn(C)nn3)C(C)(C)C(=O)O)ccc2C)Cc2ncccc2O1 [Example 111, (S)-methyl-3-(3-(((R)-2-ethyl-2,3-dihydropyrido[2,3-f][1,4]oxazepin-4(5H)-yl)methyl)-4-methyl-phenyl)-2,2-dimethyl-3-((1-methyl-1H-1,2,3-triazol-4-yl)-methoxy)-propanoic acid]",100 to 1000 nM
6,"Cc1ccc(C(OCc2c[nH]nn2)C(C)(C)C(=O)O)cc1CN1C[C@@H](C)Oc2ccccc2S1(=O)=O (stereo partly drawn) [Example 101, 3-((1H-1,2,3-triazol-4-yl)methoxy)-2,2-dimethyl-3-(4-methyl-3-(((R)-4-methyl-1,1-dioxido-3,4-dihydro-2H-benzo[b][1,4,5]oxathiazepin-2-yl)methyl)phenyl)propanoic acid]",10 to 100 nM
7,"CCCn1cc(CO[C@H](c2ccc(C)c(CN(Cc3cccc(C(=O)O)c3)S(=O)(=O)c3cccc(C(=O)O)c3)c2)C(C)(C)C(=O)O)nn1 [Example 92, (R)-3-(N-(5-(2-carboxy-2-methyl-1-((1-propyl-1H-1,2,3-triazol-4-yl)methoxy)propyl)-2-methylbenzyl)-N-(3-carboxybenzyl)sulfamoyl)benzoic acid]",1000 to 10000 nM
8,"COC(=O)C(C)(C)C(OCc1cn(Cc2cccc(-c3ccnc(C(=O)O)c3)c2)nn1)c1ccc(C)c(CN2C[C@@H](C)Oc3ccccc3S2(=O)=O)c1 (stereo partly drawn) [Example 57, 4-(3-((4-((3-Methoxy-2,2-dimethyl-1-(4-methyl-3-(((R)-4-methyl-1,1-dioxido-3,4-dihydro-2H-benzo[b][1,4,5]oxathiazepin-2-yl)methyl)phenyl)-3-oxopropoxy)methyl)-1H-1,2,3-triazol-1-yl)methyl)phenyl)picolinic acid]",100 to 1000 nM
9,"Cc1ccc(C(OCc2cn(Cc3cccc(Br)c3)nn2)C(C)(C)C(=O)O)cc1CN1C[C@@H](C)Oc2ccccc2S1(=O)=O (stereo partly drawn) [Example 1, 3-((1-(3-Bromobenzyl)-1H-1,2,3-triazol-4-yl)methoxy)-2,2-dimethyl-3-(4-methyl-3-(((R)-4-methyl-1,1-dioxido-3,4-dihydro-2H-benzo[b][1,4,5]oxathiazepin-2-yl)methyl)phenyl)propanoic acid]",< 1 nM
10,"CCn1cc(CO[C@@H](c2ccc(C)c(CN3C[C@H](C)Cc4ccncc4S3(=O)=O)c2)C(C)(C)C(=O)O)nn1 [Example 63, (3S)-((1-ethyl-1H-1,2,3-triazol-4-yl)methoxy)-2,2-dimethyl-3-(4-methyl-3-(((R)-4-methyl-1,1-dioxido-4,5-dihydropyrido[4,3-f][1,2]thiazepin-2(3H)-yl)methyl)phenyl)propanoic acid]",1000 to 10000 nM
11,"C#CCOC(c1ccc(C)c(CN2C[C@@H](C)Oc3ccccc3S2(=O)=O)c1)C(C)(C)C(=O)O (stereo partly drawn) [Example 2, 2,2-Dimethyl-3-(4-methyl-3-(((R)-4-methyl-1,1-dioxido-3,4-dihydro-2H-benzo[b][1,4,5]oxathiazepin-2-yl)methyl)phenyl)-3-(prop-2-yn-1-yloxy)propanoic acid]",100 to 1000 nM
12,"CC[C@@H]1CN(Cc2cc(C(OCc3cn(CC)nn3)C(C)(C)C(=O)O)ccc2C)S(=O)(=O)c2ccccc2O1 (stereo partly drawn) [Example 10, 3-(3-(((R)-4-ethyl-1,1-dioxido-3,4-dihydro-2H-benzo[b][1,4,5]oxathiazepin-2-yl)methyl)-4-methylphenyl)-3-((1-ethyl-1H-1,2,3-triazol-4-yl)methoxy)-2,2-dimethylpropanoic acid]",< 1 nM
13,"Cc1ccc(C(OCc2cn(Cc3ccc(CN=[N+]=[N-])cc3)nn2)C(C)(C)C(=O)O)cc1CN1C[C@@H](C)Oc2ccccc2S1(=O)=O (stereo partly drawn) [Example 19, 3-((1-(4-(Azidomethyl)benzyl)-1H-1,2,3-triazol-4-yl)methoxy)-2,2-dimethyl-3-(4-methyl-3-(((R)-4-methyl-1,1-dioxido-3,4-dihydro-2H-benzo[b][1,4,5]oxathiazepin-2-yl)methyl)phenyl)propanoic acid]",1 to 10 nM
14,"Cc1ccc(C(OCc2cn(Cc3cccc(-c4ccc(C(=O)O)cc4)c3)nn2)C(C)(C)C(=O)O)cc1CN1C[C@@H](C)Oc2ccccc2S1(=O)=O (stereo partly drawn) [Example 25, 3′-((4-((2-Carboxy-2-methyl-1-(4-methyl-3-(((R)-4-methyl-1,1-dioxido-3,4-dihydro-2H-benzo[b][1,4,5]oxathiazepin-2-yl)methyl)phenyl)propoxy)methyl)-1H-1,2,3-triazol-1-yl)methyl)-[1,1′-biphenyl]-4-carboxylic acid]",10 to 100 nM
15,"COCCOCCn1cc(CO[C@@H](c2ccc(C)c(CN3C[C@@H](C)Oc4ccccc4S3(=O)=O)c2)C(C)(C)C(=O)O)nn1 [Example 71, (3S)-((1-(2-(2-methoxyethoxy)ethyl)-1H-1,2,3-triazol-4-yl)methoxy)-2,2-dimethyl-3-(4-methyl-3-(((R)-4-methyl-1,1-dioxido-3,4-dihydro-2H-benzo[b][1,4,5]oxathiazepin-2-yl)methyl)phenyl)propanoic acid]",10 to 100 nM
16,"CCn1cc(COC(c2ccc(C)c(CN(Cc3ccccc3)S(=O)(=O)c3ccccc3)c2)C(C)(C)C(=O)O)nn1 (centres unmarked) [Example 99, 3-(3-((N-benzylphenylsulfonamido)methyl)-4-methylphenyl)-3-((1-ethyl-1H-1,2,3-triazol-4-yl)methoxy)-2,2-dimethylpropanoic acid]",10 to 100 nM
17,"CCCn1cc(CO[C@H](c2ccc(C)c(CN3C[C@@H](C)Cc4ccc(F)cc4S3(=O)=O)c2)C(C)(C)C(=O)O)nn1 [Example 87, (R)-3-(3-(((S)-8-fluoro-4-methyl-1,1-dioxido-4,5-dihydrobenzo[f][1,2]thiazepin-2(3H)-yl)methyl)-4-methylphenyl)-2,2-dimethyl-3-((1-propyl-1H-1,2,3-triazol-4-yl)methoxy)propanoic acid]",< 1 nM
18,"CCCn1cc(COC(c2ccc(C)c(CN3C[C@@H](CC)Oc4ccccc4S3(=O)=O)c2)C(C)(C)C(=O)O)nn1 (stereo partly drawn) [Example 4, 3-(3-(((R)-4-ethyl-1,1-dioxido-3,4-dihydro-2H-benzo[b][1,4,5]oxathiazepin-2-yl)methyl)-4-methylphenyl)-2,2-dimethyl-3-((1-propyl-1H-1,2,3-triazol-4-yl)methoxy)propanoic acid]",< 1 nM
19,"Cc1ccc(C(OCc2cn(CC3CCCN(C(=O)OC(C)(C)C)C3)nn2)C(C)(C)C(=O)O)cc1CN1C[C@@H](C)Oc2ccccc2S1(=O)=O (stereo partly drawn) [Example 18, 3-((1-((1-(Tert-butoxycarbonyl)piperidin-3-yl)methyl)-1H-1,2,3-triazol-4-yl)methoxy)-2,2-dimethyl-3-(4-methyl-3-(((R)-4-methyl-1,1-dioxido-3,4-dihydro-2H-benzo[b][1,4,5]oxathiazepin-2-yl)methyl)phenyl)propanoic acid]",1 to 10 nM
20,"CCCn1cc(CO[C@H](c2ccc(C)c(CN3C[C@@H](C)Cc4ccc(C(F)(F)F)cc4S3(=O)=O)c2)C(C)(C)C(=O)O)nn1 [Example 86, (R)-2,2-dimethyl-3-(4-methyl-3-(((S)-4-methyl-1,1-dioxido-8-(trifluoromethyl)-4,5-dihydrobenzo[f][1,2]thiazepin-2(3H)-yl)methyl)phenyl)-3-((1-propyl-1H-1,2,3-triazol-4-yl)methoxy)propanoic acid]",< 1 nM
21,"Cc1ccc(C(OCc2cn(CC3CCN(S(C)(=O)=O)CC3)nn2)C(C)(C)C(=O)O)cc1CN1C[C@@H](C)Oc2ccccc2S1(=O)=O (stereo partly drawn) [Example 36, 2,2-Dimethyl-3-(4-methyl-3-(((R)-4-methyl-1,1-dioxido-3,4-dihydro-2H-benzo[b][1,4,5]oxathiazepin-2-yl)methyl)phenyl)-3-((1-((1-(methylsulfonyl)piperidin-4-yl)methyl)-1H-1,2,3-triazol-4-yl)methoxy)propanoic acid]",10 to 100 nM
22,"CC[C@@H]1Cc2ccccc2S(=O)(=O)N(Cc2cc([C@H](OCc3cn(CC)nn3)C(C)(C)C(=O)O)ccc2C)C1 [Example 69, (3S)-((1-ethyl-1H-1,2,3-triazol-4-yl)methoxy)-2,2-dimethyl-3-(4-methyl-3-(((R)-4-ethyl-1,1-dioxido-4,5-dihydrobenzo[f][1,2]thiazepin-2(3H)-yl)methyl)phenyl)propanoic acid]",10 to 100 nM

# Same assay, conditions: NQO1 specific activity induction, 48 hours with compound
row,SMILES,EC50
1,"Cc1ccc(C(OCc2cn(C3COC3)nn2)C(C)(C)C(=O)O)cc1CN1C[C@@H](C)Cc2ccncc2S1(=O)=O (single isomer, unassigned) [Example 103]",1 to 10 nM
